We go through 23 compounds from US20220389031A1, “MACROCYCLIC SULFONYLAMIDE DERIVATIVES USEFUL AS NLRP3 INHIBITORS” (Inflazome Limited, priority 2019, published 2022).

Chain of NLRP3 (Q96P20 whole entry): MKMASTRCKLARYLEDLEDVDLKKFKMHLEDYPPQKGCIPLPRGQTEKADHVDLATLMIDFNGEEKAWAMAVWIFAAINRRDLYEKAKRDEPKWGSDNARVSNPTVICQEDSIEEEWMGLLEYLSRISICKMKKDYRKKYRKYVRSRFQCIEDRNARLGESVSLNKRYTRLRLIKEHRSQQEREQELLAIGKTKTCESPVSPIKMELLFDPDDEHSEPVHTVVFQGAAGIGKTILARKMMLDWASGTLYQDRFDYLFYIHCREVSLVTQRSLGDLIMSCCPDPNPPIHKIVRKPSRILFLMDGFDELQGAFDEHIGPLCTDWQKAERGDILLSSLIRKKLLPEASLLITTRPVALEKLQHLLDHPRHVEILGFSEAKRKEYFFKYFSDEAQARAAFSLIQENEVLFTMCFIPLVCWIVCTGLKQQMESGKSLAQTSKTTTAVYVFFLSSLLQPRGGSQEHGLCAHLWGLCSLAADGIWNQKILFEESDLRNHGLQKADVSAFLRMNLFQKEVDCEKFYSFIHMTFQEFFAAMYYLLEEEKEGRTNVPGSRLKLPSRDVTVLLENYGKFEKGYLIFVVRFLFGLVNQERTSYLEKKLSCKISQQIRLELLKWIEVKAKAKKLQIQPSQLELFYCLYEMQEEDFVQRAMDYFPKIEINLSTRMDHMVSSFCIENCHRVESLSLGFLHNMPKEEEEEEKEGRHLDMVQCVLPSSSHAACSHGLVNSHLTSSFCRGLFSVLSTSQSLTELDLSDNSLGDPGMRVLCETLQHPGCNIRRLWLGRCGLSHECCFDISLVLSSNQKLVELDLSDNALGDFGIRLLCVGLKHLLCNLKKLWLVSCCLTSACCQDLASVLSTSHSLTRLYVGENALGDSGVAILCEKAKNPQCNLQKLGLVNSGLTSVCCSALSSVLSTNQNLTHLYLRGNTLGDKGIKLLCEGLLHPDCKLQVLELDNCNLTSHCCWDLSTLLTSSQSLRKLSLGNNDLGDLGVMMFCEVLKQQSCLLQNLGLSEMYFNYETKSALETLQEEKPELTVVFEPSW

For the assay, the target named is NLRP3 (Homo sapiens, UniProt Q96P20). Nature of the assay: THP-1 cells pyroptosis assay (LPS + nigericin, resazurin readout). The class given is cell-based. Also on record: Seed THP-1 cells (25,000 cells/well) containing 1.0 μg/ml LPS; host or cells: THP-1 cells. The settings on record: NLRP3 inhibitory activity, 1.0 μg/ml LPS, 3 hrs compound, nigericin 5 μM 1 hr. The method, then:
THP-1 cells (ATCC #TIB-202) were grown in RPMI containing L-glutamine (Gibco #11835) supplemented with 1 mM sodium pyruvate (Sigma #S8636) and penicillin (100 units/ml)/streptomycin (0.1 mg/ml) (Sigma #P4333) in 10% Fetal Bovine Serum (FBS) (Sigma #F0804). The cells were routinely passaged and grown to confluency (˜10^6 cells/ml). On the day of the experiment, THP-1 cells were harvested and resuspended into RPMI medium (without FBS). The cells were then counted and viability (>90%) checked by Trypan blue (Sigma #T8154). Appropriate dilutions were made to give a concentration of 625,000 cells/ml. To this diluted cell solution was added LPS (Sigma #L4524) to give a […] Final Assay Concentration (FAC). 40 μl of the final preparation was aliquoted into each well of a 96-well plate. The plate thus prepared was used for compound screening.
The following method step-by-step assay was followed for compound screening. • 1. Seed THP-1 cells (25,000 cells/well) containing 1.0 μg/ml LPS in 40 μl of RPMI medium (without FBS) in 96-well, black walled, clear bottom cell culture plates coated with poly-D-lysine (VWR #734-0317) • 2. Add 5 μl compound (8 points half-log dilution, with 10 μM top dose) or vehicle (DMSO 0.1% FAC) to the appropriate wells • 3. Incubate for 3 hrs at 37° C., 5% CO2 • 4. Add 5 μl nigericin (Sigma #N7143) (FAC 5 μM) to all wells • 5. Incubate for 1 hr at 37° C., 5% CO2 • 6. At the end of the incubation period, spin plates at 300×g for 3 mins and remove supernatant • 7. Then add 50 μl of resazurin (Sigma #R7017) (FAC 100 μM resazurin in RPMI medium without FBS) and incubate plates for a further 1-2 hrs at 37° C. and 5% CO2 • 8. Plates were read in an Envision reader at Ex 560 nm and Em 590 nm • 9. IC50 data is fitted to a non-linear regression equation (log inhibitor vs response-variable slope 4-parameters)
Turning to `CC1(C)COc2cc(ccn2)-c2ccc3c(c2CC(=O)NS(=O)(=O)c2nn1cc2F)CCC3` [Example 6, 16-fluoro-19,19-dimethyl-21-oxa-14λ^6-thia-13,18,23,27-tetraazapentacyclo[20.3.1.1^15,18.0^2,10.0^5,9]heptacosa-1(25),2,4,9,15(27),16,22(26),23-octaene-12,14,14-trione], the IC50 is 5000 to 10000 nM.
Turning to `CC(C)c1cccc2c1CC(=O)NS(=O)(=O)c1cccc(c1)CCOc1cc-2ccn1` [Example 7], the IC50 lay in the range of 1000 to 5000 nM.
Turning to `CC(C)c1cccc2c1CC(=O)NS(=O)(=O)c1nn(cc1F)CCOc1cc-2ccn1` [Example 8], the IC50 lay in the range of 1000 to 5000 nM.
On to `O=C1Cc2c(ccc3c2CCC3)-c2ccnc(c2)OCCc2cccc(c2)S(=O)(=O)N1` [Example 9], for which the IC50 fell in the range of 5000 to 10000 nM.
For `CC(C)c1cc(F)cc2c1CC(=O)NS(=O)(=O)c1nn(cc1F)CCOc1cc-2ccn1` [Example 14], the IC50 was in the range of 1000 to 5000 nM.
`CC(C)c1cc(F)cc2c1CC(=O)NS(=O)(=O)c1cccnc1OCCCOc1cc-2ccn1` [Example 18]: the IC50 lay within 1000 to 5000 nM.
As to `Cc1nn2c(C)c1S(=O)(=O)NC(=O)Cc1c(cc(F)cc1C(C)C)-c1ccnc(c1)OCC2(C)C` [Example 23], the IC50 is 5000 to 10000 nM.
Turning to `CC(C)c1cc(F)cc2c1CC(=O)NS(=O)(=O)c1cc(ccc1F)CCOc1cc-2ccn1` [Example 26], the IC50 is 1000 to 5000 nM.
For the compound `CC(C)c1cccc2c1CC(=O)NS(=O)(=O)c1cccc(c1)C(C)(C)COc1cc-2ccn1` [Example 28], the IC50 is 1000 to 5000 nM.
Turning to `CC(C)c1cc(F)cc2c1CC(=O)NS(=O)(=O)c1cc(cc(C3CC3)c1)CCOc1cc-2ccn1` [Example 30, 14-cyclopropyl-4-fluoro-6-(propan-2-yl)-19-oxa-11λ^6-thia-10,21-diazatetracyclo[18.3.1.11^2,16.0^2,7]pentacosa-1(23),2(7),3,5,12(25),13,15,20(24),21-nonaene-9,11,11-trione], the IC50 lay in the range of 500 to 1000 nM.
For `CC(C)c1cccc2c1CC(=O)NS(=O)(=O)c1ccnn1CCCCCOc1cc-2ccn1` [Example 43, 6-(propan-2-yl)-22-oxa-11λ^6-thia-10,15,16,24-tetraazatetracyclo-[21.3.1.0^2,7.0^12,16]heptacosa-1(26),2(7),3,5,12,14,23(27),24-octaene-9,11,11-trione], the IC50 was 1000 to 5000 nM.
`CC(C)c1cccc2c1CC(=O)NS(=O)(=O)N1CCCC(C1)N(C)CCOc1cc-2ccn1` (centres unmarked) [Example 45, 17-methyl-6-(propan-2-yl)-20-oxa-11λ^6-thia-10,12,17,22-tetraaza-tetracyclo[19.3.1.1^12,16.0^2,7]hexacosa-1(24),2(7),3,5,21(25),22-hexaene-9,11,11-trione]: the IC50 was 1000 to 5000 nM.
For the compound `CC(C)c1cc(C#N)cc2c1CC(=O)NS(=O)(=O)c1cnn(c1)C(C)(C)COc1cc-2ccn1` [Example 46, 6-isopropyl-16,16-dimethyl-9,11,11-trioxo-18-oxa-11λ^6-thia-10,14,15,20-tetrazatetra-cyclo[17.3.1.1^12,15.0^2,7]tetracosa-1(23),2(7),3,5,12(24),13,19,21-octaene-4-carbonitrile], the IC50 is 1000 to 5000 nM.
With `CC(C)c1cc(OC(F)F)cc2c1CC(=O)NS(=O)(=O)c1cnn(c1)C(C)(C)COc1cc-2ccn1` [Example 47, 4-(difluoromethoxy)-6-isopropyl-16,16-dimethyl-11,11-dioxo-18-oxa-11λ^6-thia-10,14,15,20-tetrazatetracyclo[17-3-1-1^12,15.0^2,7]tetracosa-1(23),2(7),3,5,12(24), 13,19,21-octaen-9-one], the IC50 lay in the range of 100 to 500 nM.
Next, `CC(C)c1c(F)c(C#N)cc2c1CC(=O)NS(=O)(=O)c1cnn(c1)C(C)(C)COc1cc-2ccn1` [Example 48, 5-fluoro-6-isopropyl-16,16-dimethyl-9,11,11-trioxo-18-oxa-11λ^6-thia-10,14,15,20-tetrazatetracyclo[17-3-1-1^12,15.0^2,7]tetracosa-1(23),2(7),3,5,12(24),13,19,21-octaene-4-carbonitrile]: 1000 to 5000 nM.
Next, `CC(C)c1c(F)c(OC(F)F)cc2c1CC(=O)NS(=O)(=O)c1cnn(c1)C(C)(C)COc1cc-2ccn1` [Example 49, 4-(difluoromethoxy)-5-fluoro-6-isopropyl-16,16-dimethyl-11,11-dioxo-18-oxa-11λ^6-thia-10,14,15,20-tetrazatetracyclo[17.3.1.1^12,15.0^2,7]tetracosa-1(23),2(7),3,5, 12(24),13,19,21-octaen-9-one]: 500 to 1000 nM; `CC(C)c1cc(F)cc2c1CC(=O)NS(=O)(=O)c1nn(cc1C(=O)N(C)C)C(C)(C)COc1cc-2ccn1` [Example 50, 4-fluoro-6-isopropyl-N,N,16,16-tetramethyl-9,11,11-trioxo-18-oxa-11λ^6-thia-10,15,20,24-tetrazatetracyclo[17.3.1.1^12,15.0^2,7]tetracosa-1(23),2(7),3,5,12(24),13,19, 21-octaene-13-carboxamide]: 5000 to 10000 nM; `COCc1cc2c(c(C(C)C)c1)CC(=O)NS(=O)(=O)c1cnn(c1)C(C)(C)COc1cc-2ccn1` [Example 51, 6-isopropyl-4-(methoxymethyl)-16,16-dimethyl-11,11-dioxo-18-oxa-11λ^6-thia-10,14,15,20-tetrazatetracyclo[17-3-1-1^12,15.0^2,7]tetracosa-1(23),2(7),3,5,12(24),13,19, 21-octaen-9-one]: not above 100 nM.
Regarding `COCc1cc2c(c(C(C)C)c1F)CC(=O)NS(=O)(=O)c1cnn(c1)C(C)(C)COc1cc-2ccn1` [Example 52, 5-fluoro-6-isopropyl-4-(methoxymethyl)-16,16-dimethyl-11,11-dioxo-18-oxa-11λ^6-thia-10,14,15,20-tetrazatetracyclo[17.3.1.1^12,15.0^2,7]tetracosa-1(23),2(7),3,5, 12(24),13,19,21-octaen-9-one], the IC50 fell in the range of 100 to 500 nM.
Take `CC(C)c1cc(F)cc2c1CC(=O)NS(=O)(=O)c1nn(c(CN3CCN(C)CC3)c1F)C(C)(C)COc1cc-2ccn1` [Example 53, 4,13-difluoro-6-isopropyl-16,16-dimethyl-14-[(4-methylpiperazin-1-yl)-methyl]-11,11-dioxo-18-oxa-11λ^6-thia-10,15,20,24-tetrazatetracyclo[17.3.1.1^12,15.0^2,7]-tetracosa-1(23),2(7),3,5,12(24),13,19,21-octaen-9-one]: the IC50 was not above 100 nM.
For `CC(C)c1cc(F)cc2c1CC(=O)NS(=O)(=O)c1nn(c(C(=O)N3CCN(C)CC3)c1F)C(C)(C)COc1cc-2ccn1` [Example 54, 4,13-difluoro-6-isopropyl-16,16-dimethyl-14-(4-methylpiperazine-1-carbonyl)-11,11-dioxo-18-oxa-11λ^6-thia-10,15,20,24-tetrazatetracyclo[17.3.1.1^12,15.0^2,7]-tetracosa-1(23),2(7),3,5,12(24),13,19,21-octaen-9-one], the IC50 fell in the range of 500 to 1000 nM.
Next, `CC(C)c1cc(F)cc2c1CC(=O)NS(=O)(=O)c1nn(c(CN3CCOCC3)c1F)C(C)(C)COc1cc-2ccn1` [Example 55, 4,13-difluoro-6-isopropyl-16,16-dimethyl-14-(morpholinomethyl)-11,11-dioxo-18-oxa-11λ^6-thia-10,15,20,24-tetrazatetracyclo[17.3.1.1^12,15.0^2,7]tetracosa-1(23),2(7),3,5,12(24),13,19,21-octaen-9-one]: 100 to 500 nM; `CC(C)c1cc(F)cc2c1CC(=O)NS(=O)(=O)c1cnn(c1)C(C)(C)CNc1cc-2ccn1` [Example 56, 4-fluoro-6-isopropyl-16,16-dimethyl-11,11-dioxo-11λ^6-thia-10,14,15,18, 20-pentazatetracyclo[17.3.1.1^12,15.0^2,7]tetracosa-1(23),2(7),3,5,12(24),13,19,21-octaen-9-one]: not above 100 nM.
